# Laboratory results: a melting point compilation (Tetko et al.)
row,SMILES,melting point [°C]
1,Cc1cc(C)c(S(=O)(=O)NCCC(=O)O)c(C)c1,118 to 120
2,CCCC(=O)N1CCCC(C(=O)O)C1 (stereo not drawn),96 to 98
3,NC(CC(=O)O)C1CCOCC1 (stereo not drawn),228 to 230
4,CNS(=O)(=O)c1ccc(N)cc1,110 to 112
5,NCc1cc2ccccc2[nH]1,71 to 73
6,Oc1ccc(Oc2nccs2)cc1,126 to 128
7,NC(=O)CN1CCC(O)CC1,114 to 116
8,O=C(Nc1ccc(-n2cccn2)c(F)c1)OCC(F)(F)F,156 to 158
9,Cc1c(C(F)(F)F)cccc1S(N)(=O)=O,149 to 151
10,CC(C)(C)OC(=O)NCc1cccc(C(N)=S)c1,105 to 107
11,C#CCOc1cccc(C#N)c1,61 to 63
12,CC(C)(C)OC(=O)N1CCN(CCS(N)(=O)=O)CC1,138 to 140
13,NCCC(=O)N1CCN(c2ccccn2)CC1,76 to 78
14,CC(N)c1ccc(N2CCCC2=O)cc1 (stereo not drawn),62 to 64
15,O=C(O)C1(c2ccc(F)cc2)CCC1,67 to 69
16,CC(Nc1nc2ccccc2s1)C(=O)O (stereo not drawn),259 to 261
17,Cc1ccc(Cl)c(C(=O)O)c1N,152 to 154
18,c1ccc2oc(-c3ccncc3)cc2c1,73 to 75
19,Cc1cccc(C(=O)Nc2ccccc2C(=O)O)c1,182 to 186
20,O=C(O)CC1Sc2ccc(Cl)cc2NC1=O (stereo not drawn),240 to 242
21,Nc1cccc(Oc2cnccn2)c1,89 to 91
22,CC(C)(C)c1ccc(C2(CN)CCCC2)cc1,62 to 64
23,COC(=O)C(=CN(C)C)C(C)=O,47 to 49
24,CC(C)C(=O)Nc1cccc(F)c1C(=O)O,128 to 130
25,Cc1ccc(S(N)(=O)=O)cc1NC(=O)CCl,179 to 181

row,SMILES,melting point [°C]
1,CC(Sc1ncccn1)C(=O)O (stereo not drawn),135 to 137
2,COC(=O)CCNc1ccc(C)cc1,59 to 61
3,CCNS(=O)(=O)c1ccc2c(c1)NCC2,112 to 114
4,CN1CC(=O)N(Cc2ccc(C(N)=O)cc2[N+](=O)[O-])C1=O,219 to 221
5,O=C(O)c1ccc(Oc2ccc(F)cc2[N+](=O)[O-])c(Cl)c1,155 to 157
6,CCc1cccc(NC(N)=S)c1,85 to 87
7,O=c1oc2ccc(O)cc2s1,171 to 173
8,CCOC(=O)c1sc(-c2ccc(OC)c(OC)c2)cc1N,120 to 122
9,Cc1nc(Cl)sc1C(=O)O,149 to 151
10,O=C(O)c1cnnn1-c1ccccc1Cl,174 to 176
11,Cc1nc2ccc(N)cc2o1,129 to 131
12,Cc1ccc(C(=O)COc2ccc(C=O)cc2)cc1C,65 to 67
13,NS(=O)(=O)c1ccc2c(c1)CCCO2,145 to 147
14,Nc1ccccc1Cc1nc(-c2ccsc2)no1,118 to 120
15,COC(=O)C1CCCc2[nH]ncc21 (stereo not drawn),84 to 86
16,CC(C)(C)C(=O)NCC(=O)O,132 to 134
17,Nc1c(Cl)cc(Cl)c2c1N=S=N2,176 to 178
18,CS(=O)(=O)Cc1ccc(Cl)cc1S(=O)(=O)Cl,103 to 105
19,COCCNC(=O)NC(=O)CCl,103 to 105
20,Nc1nc(Cc2ccc(Br)cc2)cs1,146 to 148
21,O=C(O)CCC(=O)N1CCSc2ccccc21,134 to 136
22,Cc1cc(C)n2cnc(C(N)=O)c2n1,303 to 305
23,Cc1ccccc1C1(C(=O)O)CCOCC1,170 to 172
24,O=C(CCl)Nc1ccccc1[N+](=O)[O-],91 to 93
25,ClCc1cc(Cl)c2c(c1)OCCO2,59 to 61

row,SMILES,melting point [°C]
1,O=C(Nc1cc(Cl)ccc1C(=O)O)c1cccs1,267 to 269
2,Nc1cc(-c2cc3ccccc3o2)n[nH]1,124 to 126
3,O=C1CCCC1c1ccccc1 (stereo not drawn),35 to 37
4,CCC(=O)c1ccc(C(=O)OC)cc1,82 to 84
5,NC(=NO)c1ccc(-c2ccccc2)cc1,182 to 184
6,N#Cc1ccccc1COc1cccc(C(=O)O)c1,181 to 183
7,CCOc1ccc(C(N)=S)cc1,115 to 117
8,CCOc1ccc(C=CCN)cc1,46 to 48
9,Nc1cc(O)cc(F)c1,159 to 161
10,NS(=O)(=O)c1cccc2ncccc12,179 to 181
11,CC(C)(C)c1cc(N)n(-c2ccc(F)cc2)n1,98 to 100
12,CC(C)N1CCN(C2CCNCC2)CC1,49 to 51
13,CC(C)(CCC(=O)O)NC(=O)OC(C)(C)C,91 to 93
14,O=C1CCc2c(O)cccc21,242 to 244
15,COc1ccc(NCCCC(=O)O)cc1,204 to 206
16,CC1(C)OC(=O)c2c1ccnc2Cl,158 to 160
17,Fc1ccc(-c2cnc(CBr)o2)cc1,30 to 41
18,CNC(CO)c1cccc(Br)c1 (stereo not drawn),79 to 81
19,Cc1sc2nc(-c3cccnc3)nc(Cl)c2c1-c1ccccc1,144 to 146
20,CC1(C)Cc2ccccc2C1=O,41 to 43
21,O=C(O)C1=NN(Cc2ccc(F)cc2)C(=O)CC1,190 to 192
22,Cc1c(Cl)ccc2ccc(Cl)nc12,92 to 94
23,Cc1cc(=O)n2nc(Br)sc2n1,167 to 169
24,Cn1cc(S(=O)(=O)N2CCCC2)cc1C(=O)O,219 to 221
25,COc1cncc(C=CC(=O)O)c1,172 to 174

row,SMILES,melting point [°C]
1,CC1C=CC2C(=O)N(C)C(=O)C2C1C(=O)O (stereo not drawn),172 to 174
2,COc1ccc(CC(N)c2ccc(OC)cc2)cc1 (stereo not drawn),175 to 177
3,NCCc1ccccc1O,107 to 109
4,O=C(O)Cn1cnc2ccccc2c1=O,241 to 243
5,Sc1nnnn1-c1ccccc1,145 to 147
6,CC(C)(C(=O)O)C(O)c1cccc(OCc2ccccc2)c1 (stereo not drawn),125 to 127
7,Nc1nnc(CC(F)(F)F)o1,132 to 134
8,CCc1cccc2c(CC(=O)O)c[nH]c12,175 to 177
9,Cc1ccc(NC(=O)C(C)Cl)cc1S(=O)(=O)N1CCOCC1 (stereo not drawn),151 to 153
10,N#Cc1cccc(C2(N)CC2)c1,67 to 69
11,O=C(O)CCCc1ccc(Br)s1,54 to 58
12,Nc1ncn(CC(=O)NCc2ccccc2)n1,181 to 183
13,OCCNc1ncnc2ccccc12,172 to 174
14,CCNS(=O)(=O)c1ccc(I)cc1,112 to 114
15,CC(C)(C)n1ncc2c(=O)[nH]c(Cl)nc21,191 to 193
16,CC1(C(=O)O)CCCS1 (stereo not drawn),38 to 40
17,Cc1ccc(Oc2cc(C#N)ccn2)cc1C,63 to 65
18,COc1ccc(C)cc1-c1nn(CC(C)C)cc1C(=O)O,181 to 183
19,N=c1[nH]cnn1-c1ccccc1,148 to 150
20,Cc1nc[nH]c1C,103 to 105
21,Cc1ccc(NC(=O)C(C)C)cc1N,160 to 162
22,O=C1Nc2cc(OC(F)(F)F)ccc2C1=O,183 to 185
23,O=C(O)CCCNCc1ccccn1,69 to 71
24,O=C(O)c1cc2c(F)ccc(F)c2[nH]1,229 to 231
25,Cc1ccc(NC(=O)C=NO)cc1,145 to 147

row,SMILES,melting point [°C]
1,CC(CC(N)=S)n1cc(Cl)cn1 (stereo not drawn),128 to 130
2,CCc1ccc(-c2nn(-c3ccccc3)cc2C(=O)O)cc1,208 to 210
3,O=C(O)c1ccc(Br)cc1S,203 to 205
4,O=c1[nH]c(=O)c2cc(S(=O)(=O)Cl)ccc2[nH]1,272 to 274
5,O=C(O)c1ccc(CNC(=O)C23CC4CC(CC(C4)C2)C3)cc1,195 to 197
6,CN1CCN(c2ccc(N)c(C(F)(F)F)c2)CC1,87 to 89
7,COC(=O)CNc1cccc(F)c1,65 to 67
8,COc1c(C(=O)O)cc(Cl)cc1[N+](=O)[O-],161 to 163
9,CS(=O)(=O)OC1CCOC2(CCOCC2)C1 (stereo not drawn),110 to 112
10,CC(C)c1noc(-c2cc(Cl)ccc2N)n1,93 to 95
11,CC(C)(C)OC(=O)N1CCCC1CC(=O)O (stereo not drawn),107 to 109
12,COC(=O)c1cc2ccc(C)cc2[nH]1,131 to 133
13,COc1ccc(-c2noc(=O)[nH]2)cc1OC,211 to 213
14,CN(CC(=O)Nc1c(Cl)cccc1Cl)C(=O)CCl,188 to 190
15,O=C(O)C=Cc1ccc(S(=O)(=O)NCc2ccco2)cc1,213 to 215
16,N#CC(=O)c1ccc(Cl)cc1,41 to 43
17,Nc1nc2c(OC(F)F)cccc2s1,144 to 146
18,CC(C)(C)NC(=O)CCl,75 to 77
19,Sc1nc(-c2cccnc2)no1,179 to 181
20,CN(C)S(=O)(=O)c1ccc(Cl)c(C(=O)O)c1,181 to 183
21,CCN1CCCC1CN=C=S (stereo not drawn),43 to 45
22,CC(C)(C)OC(=O)NCCOc1cccc(N)c1,65 to 67
23,Cn1cc(C#N)cc1C(=O)O,239 to 241
24,Oc1cccc(-c2nnc[nH]2)c1,192 to 194
25,C/C(N)=C\C#N,4 to 6

row,SMILES,melting point [°C]
1,COc1ccc(CC(=O)O)cc1F,110 to 112
2,Cc1ccc2ncccc2c1Br,44 to 46
3,Cc1cc(C)c2oc(N)nc2c1,197 to 199
4,O=C1COc2cc([N+](=O)[O-])ccc2N1,225 to 227
5,Cn1ccc(C(=O)NCCC(=O)O)cc1=O,214 to 216
6,Nc1ccc(-c2ccc[nH]2)cc1,120 to 122
7,CC(C)CNCC(=O)O,198 to 200
8,NC(=O)c1ccc(N)cc1Cl,163 to 165
9,CNC1(C(=O)O)CCc2ccccc21 (stereo not drawn),279 to 281
10,CCOc1ccc(CC(CN)C(N)=O)cc1 (stereo not drawn),116 to 118
11,Brc1cncc(-c2ncc[nH]2)c1,189 to 191
12,CN(C(=O)c1ccc(N)cc1)C1CCOCC1,170 to 172
13,O=C(O)c1cc2cccc(Cl)c2o1,243 to 245
14,Cc1ccc(N)cc1-n1nnnc1C,139 to 141
15,Cc1nn2c(CO)c(C(C)C)nc2s1,119 to 121
16,CNC(=O)c1ccc(N)cc1,177 to 179
17,CN1CCN(c2ccc(C=O)cc2F)CC1,65 to 67
18,CC(=O)NNC(=O)C(C)Cl (stereo not drawn),156 to 158
19,O=C(Cc1nc2ccccc2n1C(F)F)c1cccs1,123 to 125
20,Nc1ccc(S(=O)(=O)Nc2ccc(F)cc2F)cc1,162 to 164
21,Cc1ccc(C2(C)NC(=O)NC2=O)c(C)c1 (stereo not drawn),144 to 146
22,Cc1ccc(-c2csc(N)n2)o1,102 to 104
23,SCc1c(Cl)cccc1Cl,44 to 46
